Source: PubChem BioAssay AID2060910 (Molecular Pharmacology Branch, DTP, NCI, 2025)
Values joined by “and” are separate entries in the source; they are usually repeats but may differ in a detail not shown here. Equal entries are not always repeated.

System: 242566-281-R-J2-PDC complex spheroid viability
Assay: Anticancer human tumor 242566-281-R-J2-PDC patient-derived pancreatic carcinoma cell line growth inhibition [RAS]
Settings: for viability, T/C: stronger effect = lower value
Method in brief: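 Agents were tested in combination matrices in half-log decrements from a top concentration at or near clinical Cmax (10 microM if undetermined). Targets were multi-cell spheroids of tumour lines plus HUVEC and MSC stromal cells.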
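Note: spheroids exposed to compound for 7 days before readout.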
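Throughout, for viability, T/C: 100% = DMSO vehicle control wells.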

## Cc1nc(N2CCC3(CC2)COC(C)C3N)c(CO)nc1Sc1ccnc(N)c1Cl (stereo not given) + C=CC(=O)N1CCN(c2nc(OCC3CCCN3C)nc3c(F)c(-c4nc(N)cc(C)c4C(F)(F)F)c(Cl)cc23)C(C)C1
Curve of first compound, second compound 0.00316 µM
  IC50: > 10000 nM
Curve of first compound, second compound 0.01 µM
  IC50: > 10000 nM
Curve of first compound, second compound 0.0316 µM
  IC50: > 10000 nM
Curve of first compound, second compound 0.1 µM
  IC50: > 10000 nM
Curve of first compound, second compound 0.316 µM
  IC50: > 10000 nM
Curve of first compound, second compound 1 µM
  IC50: > 10000 nM
Second compound 0.00316 µM, first compound 0.0316 µM
  viability, T/C: 115%
Second compound 0.00316 µM, first compound 0.1 µM
  viability, T/C: 136%
Second compound 0.00316 µM, first compound 0.316 µM
  viability, T/C: 102%
Second compound 0.00316 µM, first compound 1 µM
  viability, T/C: 80.1%
Second compound 0.00316 µM, first compound 3.16 µM
  viability, T/C: 104%
Second compound 0.00316 µM, first compound 10 µM
  viability, T/C: 105%
Second compound 0.01 µM, first compound 0.0316 µM
  viability, T/C: 129%
Second compound 0.01 µM, first compound 0.1 µM
  viability, T/C: 120%
Second compound 0.01 µM, first compound 0.316 µM
  viability, T/C: 89.3%
Second compound 0.01 µM, first compound 1 µM
  viability, T/C: 70.8%
Second compound 0.01 µM, first compound 3.16 µM
  viability, T/C: 94%
Second compound 0.01 µM, first compound 10 µM
  viability, T/C: 116%
Second compound 0.0316 µM, first compound 0.0316 µM
  viability, T/C: 118%
Second compound 0.0316 µM, first compound 0.1 µM
  viability, T/C: 124%
Second compound 0.0316 µM, first compound 0.316 µM
  viability, T/C: 99.1%
Second compound 0.0316 µM, first compound 1 µM
  viability, T/C: 77.4%
Second compound 0.0316 µM, first compound 3.16 µM
  viability, T/C: 100%
Second compound 0.0316 µM, first compound 10 µM
  viability, T/C: 120%
Second compound 0.1 µM, first compound 0.0316 µM
  viability, T/C: 157%
Second compound 0.1 µM, first compound 0.1 µM
  viability, T/C: 119%
Second compound 0.1 µM, first compound 0.316 µM
  viability, T/C: 89.4%
Second compound 0.1 µM, first compound 1 µM
  viability, T/C: 84.6%
Second compound 0.1 µM, first compound 3.16 µM
  viability, T/C: 83.1%
Second compound 0.1 µM, first compound 10 µM
  viability, T/C: 113%
Second compound 0.316 µM, first compound 0.0316 µM
  viability, T/C: 132%
Second compound 0.316 µM, first compound 0.1 µM
  viability, T/C: 151%
Second compound 0.316 µM, first compound 0.316 µM
  viability, T/C: 96%
Second compound 0.316 µM, first compound 1 µM
  viability, T/C: 85%
Second compound 0.316 µM, first compound 3.16 µM
  viability, T/C: 102%
Second compound 0.316 µM, first compound 10 µM
  viability, T/C: 113%
Second compound 1 µM, first compound 0.0316 µM
  viability, T/C: 141%
Second compound 1 µM, first compound 0.1 µM
  viability, T/C: 130%
Second compound 1 µM, first compound 0.316 µM
  viability, T/C: 93.2%
Second compound 1 µM, first compound 1 µM
  viability, T/C: 85.7%
Second compound 1 µM, first compound 3.16 µM
  viability, T/C: 112%
Second compound 1 µM, first compound 10 µM
  viability, T/C: 113%

## CC(C)n1nc(-c2ccc3oc(N)nc3c2)c2c(N)ncnc21
Compound 0.000316 µM
  viability, T/C: 104% [middle of 4 runs]
Compound 0.001 µM
  viability, T/C: 102% [middle of 4 runs]
Compound 0.01 µM
  viability, T/C: 85.6% [middle of 4 runs]
Compound 0.0316 µM
  viability, T/C: 63.6% [middle of 4 runs]
Compound 0.1 µM
  viability, T/C: 60.3% [middle of 4 runs]
Curve of compound
  IC50: 50.9 nM and > 100 nM and 52.5 nM

## Nc1ccn(C2OC(CO)C(O)C2(F)F)c(=O)n1 (stereo not given) + CCn1c(-c2cc(N3CCN(C)CC3)cnc2C(C)OC)c2c3cc(ccc31)-c1csc(n1)CC(NC(=O)C1CC1C)C(=O)N1CCCC(N1)C(=O)OCC(C)(C)C2
Curve of first compound, second compound 0.000949 µM
  IC50: 40.1 nM
Curve of first compound, second compound 0.003 µM
  IC50: 22.8 nM
Curve of first compound, second compound 0.00949 µM
  IC50: < 3.16 nM
Curve of first compound, second compound 0.03 µM
  IC50: < 3.16 nM
Curve of first compound, second compound 0.0949 µM
  IC50: < 3.16 nM
Curve of first compound, second compound 0.3 µM
  IC50: < 3.16 nM
Second compound 0.000949 µM, first compound 0.00316 µM
  viability, T/C: 94.2%
Second compound 0.000949 µM, first compound 0.01 µM
  viability, T/C: 87.7%
Second compound 0.000949 µM, first compound 0.0316 µM
  viability, T/C: 46.2%
Second compound 0.000949 µM, first compound 0.1 µM
  viability, T/C: 36.5%
Second compound 0.000949 µM, first compound 0.316 µM
  viability, T/C: 20.9%
Second compound 0.000949 µM, first compound 1 µM
  viability, T/C: 10.3%
Second compound 0.003 µM, first compound 0.00316 µM
  viability, T/C: 78.2%
Second compound 0.003 µM, first compound 0.01 µM
  viability, T/C: 57.9%
Second compound 0.003 µM, first compound 0.0316 µM
  viability, T/C: 43.5%
Second compound 0.003 µM, first compound 0.1 µM
  viability, T/C: 35.3%
Second compound 0.003 µM, first compound 0.316 µM
  viability, T/C: 24.3%
Second compound 0.003 µM, first compound 1 µM
  viability, T/C: 10.9%
Second compound 0.00949 µM, first compound 0.00316 µM
  viability, T/C: 50.5%
Second compound 0.00949 µM, first compound 0.01 µM
  viability, T/C: 36.2%
Second compound 0.00949 µM, first compound 0.0316 µM
  viability, T/C: 38.3%
Second compound 0.00949 µM, first compound 0.1 µM
  viability, T/C: 28.5%
Second compound 0.00949 µM, first compound 0.316 µM
  viability, T/C: 20.7%
Second compound 0.00949 µM, first compound 1 µM
  viability, T/C: 16.6%
Second compound 0.03 µM, first compound 0.00316 µM
  viability, T/C: 30.6%
Second compound 0.03 µM, first compound 0.01 µM
  viability, T/C: 27.1%
Second compound 0.03 µM, first compound 0.0316 µM
  viability, T/C: 25.5%
Second compound 0.03 µM, first compound 0.1 µM
  viability, T/C: 20.9%
Second compound 0.03 µM, first compound 0.316 µM
  viability, T/C: 16.9%
Second compound 0.03 µM, first compound 1 µM
  viability, T/C: 16.7%
Second compound 0.0949 µM, first compound 0.00316 µM
  viability, T/C: 22.3%
Second compound 0.0949 µM, first compound 0.01 µM
  viability, T/C: 21.4%
Second compound 0.0949 µM, first compound 0.0316 µM
  viability, T/C: 21.3%
Second compound 0.0949 µM, first compound 0.1 µM
  viability, T/C: 19.2%
Second compound 0.0949 µM, first compound 0.316 µM
  viability, T/C: 11.7%
Second compound 0.0949 µM, first compound 1 µM
  viability, T/C: 13.9%
Second compound 0.3 µM, first compound 0.00316 µM
  viability, T/C: 19.7%
Second compound 0.3 µM, first compound 0.01 µM
  viability, T/C: 18.2%
Second compound 0.3 µM, first compound 0.0316 µM
  viability, T/C: 18.5%
Second compound 0.3 µM, first compound 0.1 µM
  viability, T/C: 14.5%
Second compound 0.3 µM, first compound 0.316 µM
  viability, T/C: 13.1%
Second compound 0.3 µM, first compound 1 µM
  viability, T/C: 14.4%
